Laboratory results taken from ChEMBL document CHEMBL4665629, “An optimised series of substituted N-phenylpyrrolamides as DNA gyrase B inhibitors” (Eur J Med Chem, 2019).
Converted amounts (≈) assume the structure as drawn.

Columns and labels:
Enterococcus faecalis [1] = test: Antibacterial activity against Enterococcus faecalis ATCC 29212 assessed as bacterial growth inhibition at 50 uM incubated for 24 hrs by CLSI protocol based broth microdilution assay relative to control; format: functional
Klebsiella pneumoniae [2] = test: Antibacterial activity against wild type Klebsiella pneumoniae ATCC 10031 harboring GyrA S83F/D87G and ParC S80I/E84G mutants assessed as minimum inhibitory concentration required for >=90% inhibition of bacterial growth in presence of 10 ug/ml phenylalanine-arginine beta-naphthamide; format: functional
Escherichia coli [3] = test: Antibacterial activity against Escherichia coli MG1655 harboring […]/D87N and ParC S80I/E84G mutants assessed as minimum inhibitory concentration required for >=90% inhibition of bacterial growth in presence of 50 ug/ml phenylalanine-arginine beta-naphthylamide; format: functional
Enterococcus faecalis [4] = test: Antibacterial activity against Enterococcus faecalis ATCC 29212 assessed as minimum inhibitory concentration required for >=90% inhibition of bacterial growth by CLSI protocol based broth microdilution assay; format: functional
Klebsiella pneumoniae [5] = test: Antibacterial activity against wild type Klebsiella pneumoniae ATCC 10031 harboring GyrA S83F/D87G and ParC S80I mutants assessed as minimum inhibitory concentration required for >=90% inhibition of bacterial growth in presence of 10 ug/ml phenylalanine-arginine beta-naphthamide; format: functional
Salmonella enterica = test: Antibacterial activity against Salmonella enterica LT2 assessed as minimum inhibitory concentration required for >=90% inhibition of bacterial growth in presence of phenylalanine-arginine beta-naphthylamide by CLSI protocol based broth microdilution assay; format: functional
Staphylococcus aureus = test: Antibacterial activity against Staphylococcus aureus ATCC 29213 assessed as bacterial growth inhibition at 50 uM incubated for 24 hrs by CLSI protocol based broth microdilution assay relative to control; format: functional
Klebsiella pneumoniae [6] = test: Antibacterial activity against wild type Klebsiella pneumoniae ATCC 10031 harboring GyrA S83Y mutant assessed as minimum inhibitory concentration required for >=90% inhibition of bacterial growth in presence of 10 ug/ml phenylalanine-arginine beta-naphthamide; format: functional
Enterococcus faecium = test: Antibacterial activity against Enterococcus faecium ATCC 35667 assessed as minimum inhibitory concentration required for >=90% inhibition of bacterial growth by CLSI protocol based broth microdilution assay; format: functional
[7] = target: DNA gyrase (Staphylococcus aureus) (UniProt P0A0K8+P20831); test: Inhibition of Staphylococcus aureus DNA gyrase assessed as residual activity at 1 uM using biotinylated oligonucleotide as substrate incubated for 30 mins in presence of ATP by fluorescence-based microplate reader assay relative to control; format: protein-complex assay
Klebsiella aerogenes = test: Antibacterial activity against Enterobacter aerogenes ATCC 13408 assessed as bacterial growth inhibition at 50 uM incubated for 24 hrs by CLSI protocol based broth microdilution assay relative to control; format: functional
Escherichia coli [8] = test: Antibacterial activity against Escherichia coli MG1655 harboring GyrB R136C mutant assessed as minimum inhibitory concentration required for >=90% inhibition of bacterial growth in presence of 50 ug/ml phenylalanine-arginine beta-naphthylamide; format: functional
Pseudomonas aeruginosa = test: Antibacterial activity against Pseudomonas aeruginosa ATCC 27853 assessed as bacterial growth inhibition at 50 uM incubated for 24 hrs by CLSI protocol based broth microdilution assay relative to control; format: functional
Escherichia coli [9] = test: Antibacterial activity against Escherichia coli ATCC 25922 assessed as bacterial growth inhibition at 50 uM incubated for 24 hrs by CLSI protocol based broth microdilution assay relative to control; format: functional

Chain of DNA gyrase (Staphylococcus aureus) (P0A0K8 2-644 limits assumed): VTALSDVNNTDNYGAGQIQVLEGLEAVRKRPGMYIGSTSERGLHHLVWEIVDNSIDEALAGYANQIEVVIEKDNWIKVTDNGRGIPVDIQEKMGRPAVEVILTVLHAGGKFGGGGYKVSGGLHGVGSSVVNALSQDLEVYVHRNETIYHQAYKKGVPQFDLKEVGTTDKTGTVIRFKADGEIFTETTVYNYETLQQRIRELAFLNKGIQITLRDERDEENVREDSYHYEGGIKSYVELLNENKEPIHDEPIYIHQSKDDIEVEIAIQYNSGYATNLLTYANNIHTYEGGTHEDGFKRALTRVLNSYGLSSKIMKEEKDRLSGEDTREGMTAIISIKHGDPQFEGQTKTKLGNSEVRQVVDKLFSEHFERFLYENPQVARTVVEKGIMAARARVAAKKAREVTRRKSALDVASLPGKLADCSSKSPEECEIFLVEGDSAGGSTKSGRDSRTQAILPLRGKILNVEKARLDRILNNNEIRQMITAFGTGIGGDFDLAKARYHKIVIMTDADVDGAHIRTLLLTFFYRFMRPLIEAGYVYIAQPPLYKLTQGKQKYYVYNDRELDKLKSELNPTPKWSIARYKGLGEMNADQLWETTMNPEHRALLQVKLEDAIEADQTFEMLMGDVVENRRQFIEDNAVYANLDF
Chain of DNA gyrase (Staphylococcus aureus) (P20831 whole entry partner): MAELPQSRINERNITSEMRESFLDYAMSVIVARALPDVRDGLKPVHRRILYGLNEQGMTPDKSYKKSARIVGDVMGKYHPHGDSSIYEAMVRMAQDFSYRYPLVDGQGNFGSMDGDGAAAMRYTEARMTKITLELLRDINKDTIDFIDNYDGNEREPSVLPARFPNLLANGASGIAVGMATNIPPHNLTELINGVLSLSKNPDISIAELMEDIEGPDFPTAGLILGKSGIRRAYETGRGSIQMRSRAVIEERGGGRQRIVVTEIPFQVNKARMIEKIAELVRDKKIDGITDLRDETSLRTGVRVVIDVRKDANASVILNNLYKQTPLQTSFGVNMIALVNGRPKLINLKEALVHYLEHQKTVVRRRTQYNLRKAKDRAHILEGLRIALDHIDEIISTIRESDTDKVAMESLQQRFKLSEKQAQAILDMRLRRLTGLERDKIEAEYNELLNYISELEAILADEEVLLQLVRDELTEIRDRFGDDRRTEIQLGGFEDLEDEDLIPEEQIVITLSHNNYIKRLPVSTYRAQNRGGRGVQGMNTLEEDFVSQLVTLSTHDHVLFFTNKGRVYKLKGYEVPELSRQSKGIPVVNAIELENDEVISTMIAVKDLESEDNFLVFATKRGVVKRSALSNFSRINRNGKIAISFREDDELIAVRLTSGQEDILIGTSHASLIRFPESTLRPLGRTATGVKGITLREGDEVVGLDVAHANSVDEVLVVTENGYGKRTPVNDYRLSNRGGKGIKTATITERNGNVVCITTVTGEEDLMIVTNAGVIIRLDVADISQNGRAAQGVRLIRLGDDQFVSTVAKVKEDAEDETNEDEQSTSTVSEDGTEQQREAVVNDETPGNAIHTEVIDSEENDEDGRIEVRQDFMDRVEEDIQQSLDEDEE

Q: Which inhibition at 50 µM (Enterococcus faecalis [1]) does the source give for `CCn1cc(C(=O)O)c(=O)c2ccc(NC(=O)c3[nH]c(C)c(Cl)c3Cl)cc21` here?
A: 99%

Q: And the MIC (Klebsiella pneumoniae [2])?
A: 1.2 µM

Q: What about the MIC (Escherichia coli [3]) of the same molecule?
A: 2.5 µM

Q: What about the MIC (Enterococcus faecalis [4]) of the same molecule?
A: 1.56 µM (≈ 0.637 µg/mL)

Q: What about the MIC (Klebsiella pneumoniae [5]) of the same molecule?
A: 1.2 µM

Q: And the MIC (Salmonella enterica)?
A: > 32 µM

Q: And the inhibition at 50 µM (Staphylococcus aureus)?
A: 100%

Q: And the MIC (Klebsiella pneumoniae [6])?
A: 1.2 µM

Q: What about the MIC (Enterococcus faecium) of the same molecule?
A: 1.56 µM (≈ 0.637 µg/mL)

Q: What about the Activity [7] of the same molecule?
A: 90%

Q: And the inhibition at 50 µM (Klebsiella aerogenes)?
A: 9%

Q: And the MIC (Escherichia coli [8])?
A: 2.5 µM

Q: What about the inhibition at 50 µM (Pseudomonas aeruginosa) of the same molecule?
A: -5%

Q: What about the inhibition at 50 µM (Escherichia coli [9]) of the same molecule?
A: 11%
